Experimental data taken from ChEMBL document CHEMBL1201862, “PubChem BioAssay data set” (2004).
Active and inactive are the calls of the source.

What was measured:
Insulin-degrading enzyme = target: T1, Insulin-degrading enzyme (Homo sapiens, UniProt P14735); test: Dose Response: Fluorescence polarization-based cell-based high throughput dose response assay for inhibitors of insulin-degrading enzyme (IDE). [Related pubchem assays: 434962 (Primary screen (IDE inhibitors in singlicate)), 449730 (Counterscreen (Cytotoxicity in triplicate)), 435028 (Confirmation (IDE inhibitors in triplicate)), 434984 (Summary …; type: functional
T1 sequence (P14735 whole entry): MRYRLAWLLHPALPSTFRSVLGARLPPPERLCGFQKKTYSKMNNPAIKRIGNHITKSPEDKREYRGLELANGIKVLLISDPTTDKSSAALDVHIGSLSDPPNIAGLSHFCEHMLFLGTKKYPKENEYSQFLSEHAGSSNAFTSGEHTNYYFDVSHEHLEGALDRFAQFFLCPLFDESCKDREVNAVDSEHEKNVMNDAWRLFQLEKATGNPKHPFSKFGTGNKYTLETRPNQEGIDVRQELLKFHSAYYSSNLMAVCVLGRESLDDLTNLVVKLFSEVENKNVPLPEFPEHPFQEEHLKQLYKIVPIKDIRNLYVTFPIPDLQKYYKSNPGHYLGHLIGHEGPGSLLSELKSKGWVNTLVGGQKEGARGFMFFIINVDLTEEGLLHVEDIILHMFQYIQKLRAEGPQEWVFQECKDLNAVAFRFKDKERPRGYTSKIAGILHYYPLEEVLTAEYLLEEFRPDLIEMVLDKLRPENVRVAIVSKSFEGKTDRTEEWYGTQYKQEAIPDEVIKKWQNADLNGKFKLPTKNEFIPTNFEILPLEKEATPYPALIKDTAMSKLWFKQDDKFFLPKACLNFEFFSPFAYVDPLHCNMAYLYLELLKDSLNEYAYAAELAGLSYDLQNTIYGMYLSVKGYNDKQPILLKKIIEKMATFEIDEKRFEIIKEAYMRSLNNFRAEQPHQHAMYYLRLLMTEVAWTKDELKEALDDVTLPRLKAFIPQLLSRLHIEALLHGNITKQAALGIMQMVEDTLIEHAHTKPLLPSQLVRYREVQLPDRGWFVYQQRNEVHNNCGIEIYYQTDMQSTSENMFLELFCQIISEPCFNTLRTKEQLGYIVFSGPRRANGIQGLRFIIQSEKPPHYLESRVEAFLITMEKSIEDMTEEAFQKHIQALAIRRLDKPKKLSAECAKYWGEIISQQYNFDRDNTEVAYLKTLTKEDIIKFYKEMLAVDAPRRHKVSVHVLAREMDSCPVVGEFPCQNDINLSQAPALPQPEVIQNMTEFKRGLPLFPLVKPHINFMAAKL

Candida albicans [1] = test: growth inhibition of resistant C. albicans, dose response, CaCi-8 strain, fluconazole, dry powder, set 4 (AID 488950); type: functional, organism-based
Candida albicans [2] = test: C. albicans growth inhibition with fluconazole, dose response, antifungal resistance reversal project, CaCi-2 strain, Alamar Blue, dry powder, set 2 (AID 488930); type: functional, organism-based
Candida albicans [3] = test: growth inhibition of azole-resistant C. albicans, dose response, CaCi-8 strain, Alamar Blue, dry powder, set 2 (AID 488909); type: functional, organism-based
Candida albicans [4] = test: fluconazole resistance reversal in C. albicans, dose response, CaCi-2 strain, Alamar Blue, dry powder, set 4 (AID 488943); type: functional, organism-based
[5] = Counterscreen for IDE inhibitors: Luminescence-based cell-based high throughput dose response assay to identify compounds that are cytotoxic to HEK cells. [Related pubchem assays: 434962 (Primary screen (IDE inhibitors in singlicate)), 449730 (Counterscreen (Cytotoxicity in triplicate)), 435028 (Confirmation (IDE inhibitors in triplicate)) …; type: functional; conditions: HEK293
[6] = THP-1 cell cytotoxicity, dose response, cytotoxicity control for non-replicating M. tuberculosis project (AID 489025); type: functional
[7] = Luminescence Cell-Based Dose Confirmation HTS to Identify Inhibitors of Platelet Dense Granule Release. [Related pubchem assays: 1663 (Primary HTS), 1678 (Summary of Project)]; type: functional
cells [8] = type: functional, cell-based
[9] = cytotoxicity in HPDE-C7 cells, cell-based, fluorescence, HTS (AID 430); type: functional; conditions: Homo sapiens
[10] = target: T2, Sphingosine 1-phosphate receptor 4 (Homo sapiens, UniProt O95977); test: Late stage fluorescence dose response cell-based screening assay for antagonists of the Sphingosine 1-Phosphate Receptor 4 (S1P4). [Related pubchem assays: 1524 (Confirmation screen (S1P4 antagonists).), 1510 (Primary screen (S1P4 antagonists).), 1853 (Summary AID (S1P4 antagonists).), 1692 (Dose response screen (S1P4 antagonists).)]; type: functional
[11] = target: T2, Sphingosine 1-phosphate receptor 4; test: Fluorescence dose response cell-based high throughput screening assay for antagonists of the Sphingosine 1-Phosphate Receptor 4 (S1P4). [Related pubchem assays: 1524 (Confirmation in triplicates.), 1510 (Primary screen.)]; type: functional
CHO = test: cytotoxicity in TLR9-MyD88 CHO cells, dose response, cytotoxicity control for TLR9-MyD88 binding inhibitor project, cell-based, luminescence (AID 588339); type: functional, hamster; conditions: Cricetulus griseus;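 further: CHO cells stably coexpressing TLR9 and MyD88 fusions from primary screen; compound exposure lasted 48 hours before viability readout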
[12] = target: Sphingosine 1-phosphate receptor 1 (Homo sapiens, UniProt P21453); type: functional;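 further: Tango beta-arrestin reporter U2OS cells stimulated with S1P near its EC80; inhibitor potency meaning antagonism of receptor activation by the natural agonist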
[13] = cytotoxicity in KRAS-transformed pancreatic duct cells, primary screen, cell-based, fluorescence, HTS (AID 431); type: functional; conditions: Homo sapiens;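 further: cell line used: HPDE-C7K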
[14] = target: T3, Luciferin 4-monooxygenase (Photinus pyralis, UniProt P08659); test: firefly luciferase enzyme inhibitors, dose response, biochemical, luminescence (AID 1891)
Beta Lactamase = Beta Lactamase (Pseudomonas aeruginosa, UniProt Q932Y6); test: beta-lactamase reporter inhibitor potency, dose response, artefact control for TLR9-MyD88 binding inhibitor project, BLA reporter cells, FRET fluorescence (AID 588341); type: cell-based;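 further: cell based assay in CHO-K1 cells stably expressing beta-lactamase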
cells [15] = type: functional
HT-1080 = test: cytotoxicity in HT1080 fibrosarcoma cells, cell-based, fluorescence readout (AID 620); type: functional; conditions: Homo sapiens
[16] = HepG2 cell cytotoxicity, dose response, cytotoxicity control for non-replicating M. tuberculosis project (AID 489018); type: functional; conditions: Mycobacterium tuberculosis
[17] = target: T4, Replicative DNA helicase DnaB (Mycobacterium tuberculosis, UniProt P9WMR3); test: DnaB intein splicing inhibitors, dose response, biochemical, cell-free fluorescence (AID 449749); type: functional
T4 sequence (P9WMR3 whole entry): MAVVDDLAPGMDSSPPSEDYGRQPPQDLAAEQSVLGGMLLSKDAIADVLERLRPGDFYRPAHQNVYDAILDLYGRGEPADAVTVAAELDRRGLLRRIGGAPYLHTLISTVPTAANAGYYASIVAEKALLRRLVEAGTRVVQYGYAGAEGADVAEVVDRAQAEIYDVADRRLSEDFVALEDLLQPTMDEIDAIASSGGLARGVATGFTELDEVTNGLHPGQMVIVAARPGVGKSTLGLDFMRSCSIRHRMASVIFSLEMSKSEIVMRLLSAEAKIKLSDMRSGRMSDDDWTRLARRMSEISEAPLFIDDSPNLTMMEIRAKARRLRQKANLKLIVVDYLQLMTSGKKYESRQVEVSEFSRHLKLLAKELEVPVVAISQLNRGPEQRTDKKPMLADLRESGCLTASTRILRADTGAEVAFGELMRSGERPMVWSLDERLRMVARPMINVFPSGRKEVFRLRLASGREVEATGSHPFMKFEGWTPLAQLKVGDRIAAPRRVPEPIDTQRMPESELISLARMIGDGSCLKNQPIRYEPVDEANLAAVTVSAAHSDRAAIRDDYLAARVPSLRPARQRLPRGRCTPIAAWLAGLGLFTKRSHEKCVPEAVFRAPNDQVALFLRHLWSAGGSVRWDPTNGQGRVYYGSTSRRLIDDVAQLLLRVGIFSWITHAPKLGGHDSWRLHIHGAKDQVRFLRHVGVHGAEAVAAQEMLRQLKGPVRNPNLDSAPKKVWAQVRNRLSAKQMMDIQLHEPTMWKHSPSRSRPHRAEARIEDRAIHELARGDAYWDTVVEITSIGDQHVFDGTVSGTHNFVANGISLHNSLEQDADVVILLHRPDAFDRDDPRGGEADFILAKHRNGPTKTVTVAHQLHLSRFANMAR

[18] = target: T3, Luciferin 4-monooxygenase; test: Counter Screen for Luciferase-based Assay Positives. [Related pubchem assays: 620, 618, 411 ]
cells [19] = type: functional, cell-based; remark: listed apart in the source
Protein RecA = target: T5, Protein RecA (Mycobacterium tuberculosis, UniProt P9WHJ3); test: Fluorescence Cell-Free Homogeneous Dose Retest to Identify Inhibitors of RecA-Intein Splicing Activity. [Related pubchem assays (depositor defined):AID2097, AID2223, AID489010, AID492950]; type: functional
T5 sequence (P9WHJ3 whole entry): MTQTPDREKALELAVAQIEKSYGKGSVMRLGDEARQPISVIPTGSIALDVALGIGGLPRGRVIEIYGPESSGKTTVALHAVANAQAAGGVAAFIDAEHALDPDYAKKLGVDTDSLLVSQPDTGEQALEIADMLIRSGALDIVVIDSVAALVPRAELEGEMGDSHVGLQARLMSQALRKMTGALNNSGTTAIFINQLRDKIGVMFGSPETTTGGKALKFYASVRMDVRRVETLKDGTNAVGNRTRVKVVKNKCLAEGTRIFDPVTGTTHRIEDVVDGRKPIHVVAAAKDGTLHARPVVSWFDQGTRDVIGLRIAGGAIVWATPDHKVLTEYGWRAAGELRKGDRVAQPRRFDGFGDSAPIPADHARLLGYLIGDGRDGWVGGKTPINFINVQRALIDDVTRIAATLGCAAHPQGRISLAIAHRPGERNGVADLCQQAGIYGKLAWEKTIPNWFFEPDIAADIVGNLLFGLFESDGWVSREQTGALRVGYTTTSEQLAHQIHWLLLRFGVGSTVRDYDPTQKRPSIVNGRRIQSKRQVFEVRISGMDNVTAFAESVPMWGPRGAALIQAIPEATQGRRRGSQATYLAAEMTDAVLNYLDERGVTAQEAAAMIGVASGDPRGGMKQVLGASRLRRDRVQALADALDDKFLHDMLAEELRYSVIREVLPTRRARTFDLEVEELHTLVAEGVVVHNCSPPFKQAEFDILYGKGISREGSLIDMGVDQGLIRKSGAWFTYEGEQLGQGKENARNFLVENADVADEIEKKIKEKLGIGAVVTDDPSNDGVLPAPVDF

[20] = target: T6, Beta-2 adrenergic receptor (Homo sapiens, UniProt P07550); test: Dose response for HTS for Beta-2AR agonists via FAP method from Powderset2.; type: functional
[21] = target: T6, Beta-2 adrenergic receptor; test: beta2AR agonists driving receptor internalization, dose response, cell-based, FAP fluorogen, flow cytometry, cherry pick 1 (AID 588763); type: functional
INS1 [22] = test: protection from cytokine-induced mitochondrial depolarization, dose response, cell-based, INS-1E, JC-1 fluorescence ratio, dry powder (AID 488931); type: functional; conditions: Rattus norvegicus
INS1 [23] = test: protection from cytokine-driven beta-cell apoptosis, dose response, JC-1 fluorescence, INS-1E, dry powder, set 2 (AID 488867); type: functional, cell-based; conditions: Rattus norvegicus
INS1 [24] = test: protection of INS-1E cells from cytokine death, dose response, ATP luminescence, dry powder (AID 488844); type: functional, cell-based; conditions: Rattus norvegicus

T3 sequence (P08659 whole entry): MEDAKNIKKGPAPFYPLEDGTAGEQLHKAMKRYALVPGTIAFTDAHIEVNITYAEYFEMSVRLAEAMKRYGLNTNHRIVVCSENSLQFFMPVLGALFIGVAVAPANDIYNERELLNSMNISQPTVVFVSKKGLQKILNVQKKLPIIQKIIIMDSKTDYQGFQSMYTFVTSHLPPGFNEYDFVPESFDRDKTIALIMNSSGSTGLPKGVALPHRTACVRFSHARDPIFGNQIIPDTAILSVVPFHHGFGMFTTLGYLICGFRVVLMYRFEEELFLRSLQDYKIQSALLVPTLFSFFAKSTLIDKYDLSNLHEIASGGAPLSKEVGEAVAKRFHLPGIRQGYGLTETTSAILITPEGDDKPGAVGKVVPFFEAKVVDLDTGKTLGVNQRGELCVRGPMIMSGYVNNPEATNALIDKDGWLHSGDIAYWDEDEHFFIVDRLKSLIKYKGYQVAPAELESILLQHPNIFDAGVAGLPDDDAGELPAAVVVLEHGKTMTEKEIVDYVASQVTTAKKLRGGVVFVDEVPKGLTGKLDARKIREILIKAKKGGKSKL
T6 sequence (P07550 whole entry): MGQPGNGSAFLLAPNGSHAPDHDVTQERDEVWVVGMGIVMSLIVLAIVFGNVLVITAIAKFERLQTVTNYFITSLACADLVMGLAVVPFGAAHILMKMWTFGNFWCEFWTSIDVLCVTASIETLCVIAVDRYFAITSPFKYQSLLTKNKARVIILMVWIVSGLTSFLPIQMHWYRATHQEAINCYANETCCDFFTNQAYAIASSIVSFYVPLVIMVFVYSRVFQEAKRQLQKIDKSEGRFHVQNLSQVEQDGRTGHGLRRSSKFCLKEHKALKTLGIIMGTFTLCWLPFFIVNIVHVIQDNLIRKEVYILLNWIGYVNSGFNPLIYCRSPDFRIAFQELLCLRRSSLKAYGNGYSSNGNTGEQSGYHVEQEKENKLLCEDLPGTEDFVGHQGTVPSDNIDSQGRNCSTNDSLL
T2 sequence (O95977 whole entry): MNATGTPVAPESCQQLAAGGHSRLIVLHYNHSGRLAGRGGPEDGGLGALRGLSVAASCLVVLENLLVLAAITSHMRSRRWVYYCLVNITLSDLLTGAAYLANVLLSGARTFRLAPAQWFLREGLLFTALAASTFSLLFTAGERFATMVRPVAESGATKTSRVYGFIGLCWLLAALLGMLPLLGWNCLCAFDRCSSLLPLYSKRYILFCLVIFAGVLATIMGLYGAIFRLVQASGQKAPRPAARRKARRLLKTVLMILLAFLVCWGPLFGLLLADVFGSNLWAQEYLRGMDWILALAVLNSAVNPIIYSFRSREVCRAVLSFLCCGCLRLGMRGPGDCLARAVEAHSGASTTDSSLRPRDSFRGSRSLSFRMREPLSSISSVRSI
Sphingosine 1-phosphate receptor 1, sequence (P21453 whole entry): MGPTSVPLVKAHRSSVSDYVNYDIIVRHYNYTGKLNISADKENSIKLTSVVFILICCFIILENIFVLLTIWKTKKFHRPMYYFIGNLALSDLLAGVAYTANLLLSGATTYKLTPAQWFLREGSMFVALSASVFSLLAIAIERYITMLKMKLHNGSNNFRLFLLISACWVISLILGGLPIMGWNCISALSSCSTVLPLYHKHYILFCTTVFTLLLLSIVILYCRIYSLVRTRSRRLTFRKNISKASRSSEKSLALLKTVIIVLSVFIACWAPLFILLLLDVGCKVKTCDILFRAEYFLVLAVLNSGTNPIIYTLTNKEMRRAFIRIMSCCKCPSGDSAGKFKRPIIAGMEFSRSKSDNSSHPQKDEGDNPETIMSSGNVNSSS
Beta Lactamase, sequence (Q932Y6 whole entry): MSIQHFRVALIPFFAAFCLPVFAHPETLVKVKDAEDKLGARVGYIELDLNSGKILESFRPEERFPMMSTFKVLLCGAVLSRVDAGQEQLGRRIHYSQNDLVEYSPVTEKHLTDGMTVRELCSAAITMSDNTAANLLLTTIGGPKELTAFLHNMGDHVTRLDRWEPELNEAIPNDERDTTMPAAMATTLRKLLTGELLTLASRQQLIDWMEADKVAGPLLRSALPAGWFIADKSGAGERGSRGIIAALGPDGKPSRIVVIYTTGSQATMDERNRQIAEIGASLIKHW

Structure (SMILES): O=C(C1CCC1)N1CCN(c2ccnc3cc(Cl)ccc23)CC1
- IC50 (Insulin-degrading enzyme): 31.6 µM (not active)
- AC50 (Candida albicans [1]): 5 µM (active)
- AC50 (Candida albicans [2]): 1.5 µM (active)
- AC50 (Candida albicans [3]): 0.58 µM (active)
- AC50 (Candida albicans [4]): 16.9 µM (active)
- IC50 [5]: 22.1 µM (not active)

Structure (SMILES): CCOC(=O)CCS(=O)(=O)c1nc(-c2ccccc2)cc(C(F)(F)F)n1
- CC50 [6]: 19.9 µM (active)
- EC50 [7]: 14.1 µM (active)
- EC50 (cells [8]): > 350 µM (not active)
- EC50 [9]: 4.94 µM (active)
- IC50 [10]: 3.58 µM (not active)
- IC50 [11]: 0.843 µM (active)
- IC50 (CHO): 3.49 µM (active)
- IC50 [12]: 15.5 µM (not active)
- EC50 [13]: 4.4 µM (active)
- EC50 [14]: > 112 µM (not active)
- IC50 (Beta Lactamase): 28.2 µM (inactive)
- IC50 (cells [15]): 2.7 µM (active)
- EC50 (HT-1080): 14 µM (active)
- CC50 [16]: 16.2 µM (active)
- AC50 [17]: 4.45 µM (active)
- EC50 [18]: < 0.2 µM (active)
- EC50 (cells [19]): 43.4 µM (active)
- EC50 (Protein RecA): 3.23 µM (active)

Structure (SMILES): CCOC(=O)c1ccc(NC(=O)Cn2nnc(-c3ccccc3)n2)cc1
- EC50 [20]: 1.31 µM (active)
- EC50 [21]: 1.18 µM (active)

Structure (SMILES): C[C@@H]1CN([C@H](C)CO)C(=O)c2cccc(NC(=O)Nc3ccc(F)cc3)c2O[C@H]1CN(C)S(=O)(=O)c1ccc(Cl)cc1
- AC50 (INS1 [22]): 62.1 µM (active)
- AC50 (INS1 [23]): 227 µM (active)
- AC50 (INS1 [24]): 48 µM (active)
